From patent publication US5221675A, “Aza-spirocyclic compounds that enhance cholinergic neurotransmission” (Abbott Laboratories, priority 1991, dated 1993)

Assays:
[1] = system: parietotemporal cortex of humans; conditions: cited from earlier work
cortical receptors = conditions: cited from earlier work
CD1 mice = assay: Locomotor activity in automated activity monitors; format: in vivo, mouse
Experimental: Adult male CD1 mice (n=8/group) were injected with the compound of Example 1 or RS-86 (0, 0.3, 1.0, or 3.0 mg/kg, i.p.) approximately 45 minutes prior to placement in automated activity monitors (Omnitech; Columbus, Ohio). These enclosures, measuring 40×40×42 cm, are equipped with a series of photocells and generate measurements of a variety of locomotor activities.

male CD1 mice = assay: Toxicology / side-effects; format: in vivo; conditions: for Fatalities: 0.3, 1.0, 3.0 mg/kg i.p.; for Tolerability: 0.3 and 1.0 mg/kg i.p.
cardiac receptors = conditions: cited from earlier work
DBA mice = assay: Inhibitory (passive) avoidance test, 72 hour retention; format: in vivo, mouse
Excerpt: The inhibitory (or sometimes called passive) avoidance (IA) test is a well accepted animal model of learning/memory used to assess the activity of novel muscarinic agonists to enhance cognitive function (Wanibuchi et al., Eur. J. Pharmacol., 1990, 187:479). Animals are placed in the illuminated (12×14×11 cm) portion of a two-chambered box, from which they enter through a guillotine door to the larger (24×13.5×12 cm) dark compartment of the box. Entry to the dark compartment is accompanied by a mild (0.5 mA), brief (2 seconds) footshock. Initial latencies to cross are recorded, with an imposed 60 second ceiling. Following a 72 hour retention interval, animals are returned to the illuminated chamber, and latency to return to the dark compartment is again recorded, with a ceiling of 180 seconds. No footshock is administered on the test day.
Previous studies have indicated a retention deficit in DBA versus CD1 mice in the 72 hour retention model. Accordingly, adult male DBA mice (n=~15/group) were injected with either the compound of Example 1 or the reference standard RS-86 (0, 0.3, 1.0, or 3.0 mg/kg, i.p.) approximately 45 minutes prior to the training described above. Saline-treated adult male CD1 mice (n=15) served as controls.

[2] = system: cholinergic receptors located in the heart and cortical tissues; conditions: words; cited from earlier work
DBA and C57BL/6 mice = assay: Mouse plus (water) maze, spatial learning; format: in vivo; conditions: 0.3 or 1.0 mg/kg i.p.
Experimental: The mouse plus maze probes spatial learning processes (Decker and McGaugh, Brain Res. 1989, 477:29). Animals are placed at the terminus of one arm of a four-arm maze submerged in opaque (powdered milk) 25° C. water. Their task is to locate a stationary escape platform hidden at the end of one arm of the maze. The platform remains in the same position across all 4 days of testing. Six daily trials are conducted, during which choice accuracy (correct or incorrect) and latency to escape (maximum=60 seconds) are recorded. Animals failing to escape within 60 seconds are gently guided to the platform, where they are allowed to sit for 20 seconds.
Accordingly, adult male DBA and C57 mice (n=~10/group) were treated with the compound of Example 1 or RS-86 (0, 0.3, or 1.0 mg/kg, i.p.) approximately 45 minutes prior to 4 consecutive daily water maze sessions. Choice accuracy was assessed daily, with day 4 accuracy serving as the primary measure of learning.

rat brain receptor sites = conditions: cited from earlier work
[3] = system: Rat striatal muscarinic receptors; assay: Agonist intrinsic activity: inhibition of forskolin-activated [3H]cAMP in dissociated rat striatum; format: cell-based
Excerpt: Rat striatal muscarinic receptors are coupled to the inhibition of the conversion of adenosine triphosphate (ATP) to cyclic adenosine monophosphate (cAMP). […] The ATP stores in dissociated rat striatum were labeled with [^3 H]adenine and [^3 H]-cAMP levels were elevated with 10 um forskolin.

M2 muscarinic receptor = M2 muscarinic receptor (Rattus norvegicus, UniProt P10980); format: binding; conditions: read-out: Ki @ M2 RECEPTOR; Table 1; [3H]QNB, rat pons-medulla, 25° C., pH 7.4
M2 muscarinic receptor, sequence (P10980 whole entry): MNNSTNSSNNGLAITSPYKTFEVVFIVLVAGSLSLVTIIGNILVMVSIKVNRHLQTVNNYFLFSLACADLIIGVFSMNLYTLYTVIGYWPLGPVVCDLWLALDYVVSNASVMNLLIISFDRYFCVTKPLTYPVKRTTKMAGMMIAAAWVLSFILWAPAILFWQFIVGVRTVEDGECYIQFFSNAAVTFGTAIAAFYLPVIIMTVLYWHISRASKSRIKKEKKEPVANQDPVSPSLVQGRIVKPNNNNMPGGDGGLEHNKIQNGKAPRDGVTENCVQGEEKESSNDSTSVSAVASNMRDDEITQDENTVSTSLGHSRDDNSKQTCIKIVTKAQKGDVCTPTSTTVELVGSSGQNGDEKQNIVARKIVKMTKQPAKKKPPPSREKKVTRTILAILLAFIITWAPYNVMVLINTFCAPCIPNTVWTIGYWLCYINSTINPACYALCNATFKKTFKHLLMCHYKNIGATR

M1 muscarinic receptor = molecular target: T1, M1 muscarinic receptor (Rattus norvegicus, UniProt P08482); assay: Competition with [3H]pirenzepine at cortical M1 muscarinic receptors; format: binding; conditions: Table 1; [3H]pirenzepine, rat fronto-parietal cortex, 25° C., pH 7.4; read-out: Ki @ M1 RECEPTOR
T1 construct: from tissue; host or cells: adult rat fronto-parietal cortex membranes (homogenate)
T1 sequence (P08482 1-460): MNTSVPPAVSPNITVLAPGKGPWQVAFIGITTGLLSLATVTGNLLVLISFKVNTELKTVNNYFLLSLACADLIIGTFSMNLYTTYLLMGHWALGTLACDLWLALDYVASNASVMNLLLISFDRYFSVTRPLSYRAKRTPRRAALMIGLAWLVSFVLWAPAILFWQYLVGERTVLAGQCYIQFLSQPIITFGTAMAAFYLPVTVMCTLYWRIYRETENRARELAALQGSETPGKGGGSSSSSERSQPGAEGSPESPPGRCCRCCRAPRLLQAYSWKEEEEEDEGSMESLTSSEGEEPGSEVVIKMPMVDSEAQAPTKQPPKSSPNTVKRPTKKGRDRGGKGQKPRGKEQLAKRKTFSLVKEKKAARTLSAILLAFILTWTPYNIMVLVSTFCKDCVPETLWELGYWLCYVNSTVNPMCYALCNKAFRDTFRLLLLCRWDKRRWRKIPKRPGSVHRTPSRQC

muscarinic receptors = assay: Initial screening at muscarinic receptors; format: binding; conditions: words, on Table 1 data
rats = conditions: acutely and chronically administered; cited from earlier work
[4] = in vivo, cited from earlier work
[5] = system: nigro-striatal dopamine system; conditions: chronically administered, after destruction of nigro-striatal dopamine system; cited from earlier work
acetylcholine receptors = conditions: chronic administration; cited from earlier work
[6] = rat; cited from earlier work

In the case of `CNC1(C)C2CCC(C2)C1(C)C` (stereo not drawn) [mecamylamine], the Resting cortical perfusion [1] is given as “reduce resting cortical perfusion”.

For `CCN1C(=O)CC2(CCN(C)CC2)C1=O` [RS-86], the “Agonism at cortical receptors” value (cortical receptors) is listed as “partial agonist”, the Horizontal activity (CD1 mice; 3.0 mg/kg i.p., F (3,28)=29.17, p<0.00001) is listed as “profound and significant [F (3,28)=29.17, p<0.00001] reduction in horizontal activity” and the “Activity versus animals dosed with the compound of Example 1” value (CD1 mice; 0.3 or 1.0 mg/kg i.p.) is listed as “did not significantly differ”. For the same compound, the “Classic signs of cholinostimulation” value (male CD1 mice; 3.0 mg/kg i.p.) was “salivation, lacrimation, urination, defecation, and tremor”, the “Hypothermic response versus similar dose of Example 1” value (male CD1 mice; 3.0 mg/kg i.p.) was “greater hypothermic response” and the Signs observed (male CD1 mice; 3.0 mg/kg i.p.) was “dyspnea and decreased activity”. For the same compound, the Fatalities (male CD1 mice) was “No fatalities”, the Tolerability (male CD1 mice) was “well tolerated” and the “Agonism at cardiac receptors” value (cardiac receptors) was “full agonist”. For the same compound, the “Animals that completely failed to cross to the dark compartment in training” value (DBA mice; 3.0 mg/kg i.p.) was “nine”, the “Training latencies relative to all other groups” value (DBA mice; 3.0 mg/kg i.p., F (4,72)=25.8, p<0.00001) was “elevated relative to all other groups” and the “72 hour retention deficit of untreated DBAs” value (DBA mice; RS-86 0.3-3.0 mg/kg i.p.) was “apparently eliminated the 72 hour retention deficit”. For the same compound, the Potency and selectivity [2] was “poor potency and lack of selectivity” and the “Water maze performance in DBA or C57 mice” value (DBA and C57BL/6 mice) was “no beneficial effect on water maze performance”.

In the case of `CC1CCCCN1` (racemic) [(+)isomer of (±)2-methylpiperidine, (+)2-methylpiperidine], the “Binding of nicotinic ligand” value (rat brain receptor sites) is listed as “enhances the binding of nicotinic ligand”.

For `CC1OC2(CCN(C)CC2)CN1C=O.O=C(O)C(=O)O` (stereo not drawn) [Example 1, 2,8-Dimethyl-1-oxa-3-formyl-3,8-diazaspiro[4,5]decane hydrogen oxalate], the Emax ([3]; Rattus norvegicus, read-out: INTRINSIC ACTIVITY (% relative to carbacol)) was 53%, the “Agonist character at central muscarinic receptor” value ([3]; rat striatum) was “central muscarinic receptor agonist with partial agonist activity” and the Ki (M2 muscarinic receptor) was 30 µM. The “Mean horizontal activity counts” value (CD1 mice; all doses (0, 0.3, 1.0, 3.0 mg/kg i.p.)) was “equivalent across all doses”, the “Separation of hypoactivity from cognitive enhancement versus RS-86” value (CD1 mice; compared with RS-86) was “more favorable separation of hypoactivity from the desired activity of cognitive enhancement” and the Signs observed (male CD1 mice; 3.0 mg/kg i.p.) was “some dyspnea and a mild decrease in spontaneous activity”. The Fatalities (male CD1 mice) was “No fatalities”, the Tolerability (male CD1 mice) was “well tolerated” and the “Side-effects in general versus RS-86” value (male CD1 mice; compared with RS-86) was “more benign side-effects”. For the same compound, the “Latencies across dose groups” value (DBA mice; 0, 0.3, 1.0, 3.0 mg/kg i.p., DBA mice) was “latencies were equivalent across all groups”, the “72 hour retention deficit of DBA mice” value (DBA mice; 1.0 mg/kg i.p., U=171.5, z=2.04, p<0.05) was “significant attenuation of the observed retention deficit” and the “72 hour retention deficit of DBA mice” value (DBA mice; 3.0 mg/kg i.p., U=172, z=2.0, p<0.05) was “significant attenuation of the observed retention deficit”. For the same compound, the Ki (M1 muscarinic receptor) was 32 µM, the “Enhancement of learning (choice accuracy)” value (DBA and C57BL/6 mice) was “modest, albeit statistically non-significant, enhancement of learning” and the “Performance of DBA mice versus chance level” value (DBA and C57BL/6 mice; from second day of testing) was “consistently performed above chance levels”. For the same compound, the “Binding to M1 and M2 muscarinic receptors” value (muscarinic receptors) was “binds to both M1 and M2 muscarinic receptors”.

In the case of `CN1CCC[C@H]1c1cccnc1` [nicotine], the Cognitive function (rats) is given as “enhance cognitive function in rats”, the Oral bioavailability ([4]; po) is given as “poor oral bioavailability” and the Pharmacokinetics [4] is given as “unfavorable pharmacokinetics”. The “Action on neuronal and vascular functions” value [5] was “regenerative/protective action”, the “Effect on affinity of acetylcholine for the receptor” value (acetylcholine receptors) was “without affecting the affinity of acetylcholine for the receptor” and the “Up-regulation of the number of acetylcholine receptors” value (acetylcholine receptors) was 50-100%.

In the case of `O=C1NC(=O)C2(CCNCC2)N1c1ccccc1` [1-phenyl-1,3,8-triazaspiro[4,5]decan-2,4-dione], the Metabolite of fluspirilene [6] is listed as “major product of the metabolism of the neuroleptic drug, fluspirilene”.
